Entries after “also recorded” stand apart in the source; their conditions may differ. Read-outs that look alike come from different tables or passages of the source.
What was measured:
Format in all cases: cell-based
NFκB activation = assay: NFκB luciferase reporter in HEK293 cells with EPA, pAOS and L-cysteine, TNF-α induced; conditions: HEK293-NFκB-Luc cells stimulated with TNFα; for activity at 1000 µM: Homo sapiens, read-out: Inhibition of NFκB activation, average
Method: Methods: HEK293 cells were stably transfected with a NFκB luciferase reporter gene construct. One day after cell plating EPA (0, 25 μM) was added at t=0 h. pAOS (0, 1, 2 and 3 g/L) were added at t=96 h and L-cysteine (0, 1 mM) at t=120 h. NFκB activation was induced by 2.5 h incubation with TNF-α. Luciferase activity was subsequently assessed at t=122.5 h. As a control for cell viability cellular ATP levels were determined.

NF-κB = assay: Screening of oligosaccharides NFK-B inhibiting activity; conditions: screening of (oligo)saccharides, Yes/No
Excerpt: It is hypothesized that the main site of action of the specific nutritional oligosaccharides as mentioned in example 1, is the intestine. […] Screening of oligosaccharides NFK-B inhibiting activity

[1] = tested on: TNF-α-mediated NF-κB activation; assay: NF-κB luciferase reporter in HEK293 cells, TNF-α induced (pAOS with NAC or L-cysteine); conditions: pAOS pre-incubated, NAC or L-cysteine added with TNF-α for 2.5 hr
Method: FIG. 2. NFkappaB response in HEK293 cells after 22.5 hr. incubation with AOS and NAC (A) or L-cysteine (B) with TNF-α for 2.5 hr. […] TNF-α was added to induce NF-κB activation. citrus pectin oligosaccharide (pAOS) was added 18 h prior to TNF-α addition (t=18 h). As a cystein source, NAC was added at the same time as TNF-α. At t=20.5 the production of luciferase was measured by chemiluminescence.

HEK293 cells = assay: Glutathione in HEK293 cells incubated with pAOS and NAC; conditions: AOS 22.5 hr (18 h in Example 4), NAC 2.5 hr, compared with TNF-α-stimulated cells (control)
Method: To determine this, HEK293 cells were incubated with AOS for 22.5 hr. and NAC in combination with TNF-α for 2.5 hr. Obtained GSH levels were corrected for cell numbers and results were compared levels with TNF-α-stimulated cells (control). […] The combination of NAC and AOS enhance GSH production up to 278% compared with control. Data sets were compared with their baseline controls (0 mg/ml AOS in combination with its specific concentration of NAC or L-cysteine) and presented in example 2. High concentrations of AOS and NAC result in a relative stronger increase in GSH levels.
Methods: HEK293 cells were incubated with citrus pectin oligosaccharide (pAOS) for 18 h, then as a cystein source, NAC was added and incubated for 2.5 h. After the incubation period, the cells were centrifugated (2000 rpm for 5 min). Medium was discarded and taken up into ice-cold perchloric acid (0.4 M) and resuspended. Samples were then centrifuged for 10 min. at 13.000 rpm. Supernatant was collected and used for glutathione measurements. Total glutathione measurements were performed in 10 or 20 times diluted samples.

SMILES: CC/C=C\C/C=C\C/C=C\C/C=C\C/C=C\CCCC(=O)O [EPA, eicosapentaenoic acid]
- Inhibition of NFκB activation, average (NFκB activation; AOS 0 mg/ml, EPA 25 uM and/or L-cysteine 1 mM as labelled, control without additions = 100): 113
- Inhibition of NFκB activation, average (NFκB activation; AOS 1 mg/ml, alone or together with the labelled EPA 25 uM and/or L-cysteine 1 mM, control = 100): 62
- Inhibition of NFκB activation, average (NFκB activation; AOS 2 mg/ml, alone or together with the labelled EPA 25 uM and/or L-cysteine 1 mM, control = 100): 29
- Inhibition of NFκB activation, average (NFκB activation; AOS 3 mg/ml, alone or together with the labelled EPA 25 uM and/or L-cysteine 1 mM, control = 100): 8

SMILES: OC[C@H]1O[C@H](OC[C@H]2OC(O)(CO)[C@@H](O)[C@@H]2O)[C@H](O)[C@@H](O)[C@@H]1O (stereo partly drawn) [Palatinose]
- NFκB inhibition (NF-κB): No

SMILES: OC[C@H]1O[C@@](CO)(OC[C@@]2(O[C@H]3O[C@H](CO)[C@@H](O)[C@H](O)[C@H]3O)O[C@H](CO)[C@@H](O)[C@@H]2O)[C@@H](O)[C@@H]1O [1-kestose]
- NFκB inhibition (NF-κB): No

SMILES: N[C@@H](CS)C(=O)O [L-cysteine]
- activity at 1000 µM (NFκB activation; HEK293, AOS 0 mg/ml, EPA 25 uM and/or L-cysteine 1 mM as labelled, control without additions = 100): 80%
- activity at 1000 µM (NFκB activation; HEK293, AOS 1 mg/ml, alone or together with the labelled EPA 25 uM and/or L-cysteine 1 mM, control = 100): 55%
- activity at 1000 µM (NFκB activation; HEK293, AOS 2 mg/ml, alone or together with the labelled EPA 25 uM and/or L-cysteine 1 mM, control = 100): 32%
- activity at 1000 µM (NFκB activation; HEK293, AOS 3 mg/ml, alone or together with the labelled EPA 25 uM and/or L-cysteine 1 mM, control = 100): 24%

SMILES: OC[C@H]1O[C@@](CO)(OC[C@@]2(OC[C@@]3(O[C@H]4O[C@H](CO)[C@@H](O)[C@H](O)[C@H]4O)O[C@H](CO)[C@@H](O)[C@@H]3O)O[C@H](CO)[C@@H](O)[C@@H]2O)[C@@H](O)[C@@H]1O [1,1-kestotetraose]
- NFκB inhibition (NF-κB): No

SMILES: OC[C@H]1O[C@@](CO)(OC[C@@]2(OC[C@@]3(OC[C@@]4(O[C@H]5O[C@H](CO)[C@@H](O)[C@H](O)[C@H]5O)O[C@H](CO)[C@@H](O)[C@@H]4O)O[C@H](CO)[C@@H](O)[C@@H]3O)O[C@H](CO)[C@@H](O)[C@@H]2O)[C@@H](O)[C@@H]1O [1,1,1-kestopentaose]
- NFκB inhibition (NF-κB): No

SMILES: O=C[C@H](O)[C@@H](O)[C@@H](O)[C@H](O)C(=O)O [Galacturonic acid]
- NFκB inhibition (NF-κB): No

SMILES: CC(=O)N[C@@H](CS)C(=O)O [NAC, N-acetyl cysteine]
- TNF-α-mediated NF-κB activation, result in words [1]: capable of blocking NF-κB activation; also recorded: inhibited TNF-α-mediated NF-κB activation dose dependently
- GSH (glutathione) levels, result in words (HEK293 cells): enhances GSH levels in a concentration of 10 mM

SMILES: O.OC[C@H]1O[C@H](OC[C@H]2O[C@H](OC[C@H]3O[C@H](O[C@]4(CO)O[C@H](CO)[C@@H](O)[C@@H]4O)[C@H](O)[C@@H](O)[C@@H]3O)[C@H](O)[C@@H](O)[C@H]2O)[C@H](O)[C@@H](O)[C@H]1O [Stachyose hydrate]
- NFκB inhibition (NF-κB): No

SMILES: O=C(O)[C@H]1O[C@H](O[C@@H]2[C@H](O)[C@@H](O)[C@@H](O)O[C@@H]2C(=O)O)[C@H](O)[C@@H](O)[C@H]1O [Digalacturonic acid]
- NFκB inhibition (NF-κB): Yes

SMILES: O=C(O)[C@H]1O[C@H](O[C@@H]2[C@H](O)[C@@H](O)[C@@H](O[C@@H]3[C@H](O)[C@@H](O)C(O)O[C@@H]3C(=O)O)O[C@@H]2C(=O)O)[C@H](O)[C@@H](O)[C@H]1O (stereo partly drawn) [Trigalacturonic acid]
- NFκB inhibition (NF-κB): Yes
